Laboratory results: patent publication US20220008401A1, “COMPOSITIONS AND METHODS FOR TREATING PULMONARY DISEASE WITH MATRIX METALLOPROTEINASE INHIBITORS” (DARSHA LLC, priority 2019, published 2022)

What was measured:
[1] = Presence of aerosolized Compound 1 in lung of LPS-injured mice; type: in vivo, C57BL/6J mice; conditions: single aerosolized dose 35 mg/kg, one hour following nebulization
Protocol: (§1) MMP 9 was selected as a target as it is a well-established mediator of inflammation in lung injury. 12-week-old male C57BL/6J mice were intranasally instilled with LPS (1.5 mg/kg of 1 mg/ml solution in sterile PBS). 24 hours later, these mice received a single dose of aerosolized MMP inhibitor (Compound 1, dissolved in PBS, 35 mg/kg) or PBS alone. One hour following nebulization, the mice were sacrificed and assessed for MMP activity in both the bronchoalveolar lavage fluid (BALF) and lung tissue homogenate obtained from treated mice. One hour following nebulization of Compound 1, the presence of the aerosolized Compound 1 in the lung was confirmed at concentrations >100 ng/g of tissue. MMP activity in BALF was determined using a commercially available MMP 9 Quantikine assay from R&D systems.

[2] = test system: LPS injured mice; experiment: Lung injury (inflammation) score of H&E lung sections, LPS-injured mice, single inhaled dose; type: in vivo, C57BL/6J mice; conditions: LPS 1.5 mg/kg intranasal; 24 hours later single aerosolized dose 35 mg/kg; sacrifice one hour after; vs LPS alone p<0.001
Protocol: (§2) We next determined if inhaled Compound 1 attenuated specific features of acute inflammatory lung injury that were also observed in response to LPS. Again, 12-week-old male C57BL/6J mice were intranasally instilled with LPS (1.5 mg/kg of 1 mg/ml solution in sterile PBS). 24 hours later, these mice received a single dose of aerosolized MMP inhibitor (Compound 1, dissolved in PBS, 35 mg/kg) or PBS alone and a tail vein injection of FITC labeled albumin (FITC-albumin). One hour following nebulization, the mice were sacrificed. The left lung was fixed in formalin from each animal, paraffin embedded, sectioned and stained with H&E to examine histological features indicative of lung injury. These were achieved by visually scoring each slide based on a lung injury scoring system developed by the American Thoracic Society for animal models of inflammatory lung injury.

[3] = test system: LPS injured mice; experiment: Pulmonary wet to dry ratio (edema), LPS-injured mice, single inhaled dose; type: in vivo, C57BL/6J mice; conditions: LPS 1.5 mg/kg; 24 hours later single aerosolized dose 35 mg/kg; right middle lobe; n=3/group (control 4.1, LPS 12.9)
Protocol: as §2
Edema was also assessed by determination of pulmonary wet to dry ratios. At the time of sacrifice the right middle lobe was removed from each animal and promptly weighed to obtain the wet weight. Thereafter, the lung tissue was dried in an oven at 65° C. for 72 hours and then weighed to obtain the dry weight.

[4] = test system: caspase 3/7; experiment: Caspase 3/7 activity assay on lung homogenate of LPS-injured mice; type: in vivo; conditions: LPS-CGS group, four inhaled doses q6h starting 24 hours after LPS, n≥4 (LPS-PBS 0.81±1.15)
Protocol: It was also examined if Compound 1 would reduce the levels of apoptosis associated with injury by LPS. Because the time line of apoptosis takes hours, an additional set of mice were injured with LPS (1.5 mg/kg of 1 mg/ml solution in sterile PBS) followed by initiation of treatment with Compound 1 twenty four hours later. The mice received four doses of Compound 1 (one dose every six hours over a total duration of 24 hours in accordance with the treatment schedule described below with reference to FIG. 8B). The mice were sacrificed and their lungs were harvested and assessed for caspase 3 activity by western blot for cleaved caspase 3 and a caspase 3/7 activity assay obtained from ThermoFisher.
FIG. 5B is the relative densitometric quantification of western blots for cleaved caspase 3: whole caspase ratio. […] FIG. 5C depicts the results of the caspase 3/7 activity assay performed on mouse lung homogenate. […] The increase in caspase 3/7 activity was attenuated by inhaled treatment with Compound 1. FIG. 5D depicts 20× images (570A, 570B, and 570C) of representative sections of lung tissue fluorescently stained for cleaved caspase-3 (red) and cell nuclei (blue) in a control lung tissue (570A), a lung tissue of a mouse treated with LPS only (570B), and lung tissue of a mouse treated with LPS and Compound 1 (570C) (n=3).

[5] = test system: LPS injured mice; experiment: Lung wet:dry weight ratio, LPS-injured mice, q6h x 4 doses; type: in vivo; conditions: LPS then Compound 1 every 6 hours for 4 doses; right lung; n=5 (LPS alone 19.44±1.6, PBS 7.5±0.12)
Protocol: Based on the data, the effect of a 6 hour dosing interval (q6h) of Compound 1 on injured mice lung was explored. FIG. 8B schematizes the experimental LPS injury/Compound 1 treatment workflow utilized unless otherwise indicated. Briefly, mice were nasally instilled with LPS (1.5 mg/kg) followed by initiation of Compound 1 treatment 24 hours later (i.e., after a 24 hours rest period). Four doses of Compound 1 (12 mg/kg) were administered via nebulizer every 6 hours to maintain a constant presence of compound in the lung. PBS was administered as a control. Mice were sacrificed 6 hours following the fourth dose. A major feature of ALI/ARDS is non-cardiogenic pulmonary edema resulting in profound hypoxemia. […] We next investigated if attenuation of edema occurred with the alternative treatment schedule where LPS-injured mice were treated with Compound 1 every 6 hours for 4 doses. Total lung edema was determined by assessing lung wet:dry ratios under each experimental condition. Following completion of Compound 1 treatment, the right lung was removed and immediately weighed followed by desiccation for 72 hours and weighed a second time to determine the dry weight. Wet:dry weight ratios were then calculated.

[6] = test system: human neutrophils; experiment: Human neutrophil migration in modified Boyden chamber (FMLP chemoattractant); type: cell-based; conditions: for neutrophil migration into the basal chamber: 1 hour
Protocol: To determine if this effect was relevant in humans we utilized a modified Boyden chamber to assess the effect of Compound 1 on migration of human neutrophils. […] The basal chamber was filled with media containing the chemoattractant N-Formylmethionyl-leucyl-phenylalanine (FMLP) or vehicle. The apical chamber was seeded with ˜100,000 neutrophils with the addition of Compound 1 or vehicle. In the basal chamber, the neutrophils were allowed to migrate for 1 hour after which the basal chamber was fixed, stained with DAPI, and photographed. Five fields per well were imaged and the number of neutrophils counted using NIH ImageJ.

[7] = biological target: MMP 9 (Mus musculus, UniProt P41245); experiment: MMP 9 Quantikine assay on BALF of LPS-injured mice, single inhaled dose; type: in vivo, C57BL/6J mice; design: assessed for MMP activity in both the bronchoalveolar lavage fluid (BALF) and lung tissue homogenate obtained from treated mice; from tissue; host or cells: bronchoalveolar lavage fluid (BALF) of LPS-injured C57BL/6J mice; conditions: LPS 1.5 mg/kg intranasal; 24 hours later single aerosolized dose 35 mg/kg; sacrifice one hour after nebulization
Sequence of MMP 9 (P41245 108-730): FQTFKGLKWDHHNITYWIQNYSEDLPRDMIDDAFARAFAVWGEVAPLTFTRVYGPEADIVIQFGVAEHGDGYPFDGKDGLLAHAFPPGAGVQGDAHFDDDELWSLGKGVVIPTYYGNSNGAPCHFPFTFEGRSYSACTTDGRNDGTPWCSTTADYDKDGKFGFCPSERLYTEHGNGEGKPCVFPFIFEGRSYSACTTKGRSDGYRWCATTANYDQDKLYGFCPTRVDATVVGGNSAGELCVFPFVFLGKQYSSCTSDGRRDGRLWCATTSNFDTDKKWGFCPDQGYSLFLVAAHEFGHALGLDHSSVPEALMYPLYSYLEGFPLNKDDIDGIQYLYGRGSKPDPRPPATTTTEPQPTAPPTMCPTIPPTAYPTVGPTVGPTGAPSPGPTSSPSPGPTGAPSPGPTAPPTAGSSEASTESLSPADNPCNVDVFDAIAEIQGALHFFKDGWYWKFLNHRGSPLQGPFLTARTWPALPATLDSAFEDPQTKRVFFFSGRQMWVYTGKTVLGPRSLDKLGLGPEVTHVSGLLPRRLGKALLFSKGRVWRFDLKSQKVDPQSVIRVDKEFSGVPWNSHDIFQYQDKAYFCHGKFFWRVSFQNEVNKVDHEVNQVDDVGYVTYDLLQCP
Protocol: as §1

## butanamide, N-hydroxy-2-[[(4-hydroxyphenyl)sulfonyl](3-pyridinylmethyl)amino]-3-methyl, hydrochloride, (2R) [Compound 1]
[1]
  concentration of aerosolized Compound 1 in the lung: > 100 ng/g of tissue
[2]
  lung injury score (Inflammation Score): reduces the lung injury score
[3]
  pulmonary wet:dry ratio: 7.3
[4]
  caspase 3/7 activity: 0.05 ± 0.16 µM
[5]
  wet:dry weight ratio: 11.80±0.86
[6]; 10 nm CGS, no FMLP, n=4
  neutrophil migration into the basal chamber: 233±61 cells
[6]; 20 nm CGS, no FMLP, n=4
  neutrophil migration into the basal chamber: 293±148 cells
[6]; FMLP + 10 nm Compound 1
  inhibition of FMLP-induced neutrophil migration: did not achieve significance
[6]; FMLP+20 nm CGS, n=4 (FMLP alone 4280±480)
  neutrophil migration into the basal chamber: 2819±362 cells
[7]
  MMP 9 activity in BALF: inhibits MMP 9 activity in the BALF
